# Key:
# [1] = Mouse MTD; type: in vivo, C57BL/6 mice; details: IP, mice monitored 2 weeks
# [2] = tested on: E. cloacae; assay: MIC, micro-dilution broth; type: cell-based; details: E. cloacae ATCC 29893
# [3] = tested on: K. pneumoniae; assay: MIC, micro-dilution broth; type: cell-based
# [4] = tested on: A. baumannii; assay: MIC, micro-dilution broth; type: cell-based
# [5] = tested on: P. aeruginosa PA01; assay: MIC, micro-dilution broth; type: cell-based
# [6] = tested on: S. aureus ATCC29213; assay: MIC, micro-dilution broth; type: cell-based
# [7] = tested on: E. coli; assay: MIC, micro-dilution broth; type: cell-based; details: Escherichia coli, E. coli strains with intact outer membranes
# [8] = tested on: E. coli MG1655; assay: Accumulation assay, LC-MS/MS; type: cell-based; details: E. coli MG1655, 50 μM compound, up to 2 h
# [9] = tested on: S. aureus; details: cited from earlier work
# [10] = open-label clinical trial ref 26; cited from earlier work
# [11] = tested on: E. coli MG1655 harboring FabI variants; assay: MIC against Debio-1452-NH3-resistant colonies; type: cell-based
smiles,measurement,setting,value
Cc1c(CN(C)C(=O)/C=C/c2cnc3c(c2)CC(CCN)C(=O)N3)oc2ccccc12.Cl (stereo not drawn) [Compound 3],well tolerated single dose,[1],100 mg/kg
Cc1c(CN(C)C(=O)/C=C/c2cnc3c(c2)CC(NC(=O)OC(C)(C)C)C(=O)N3)oc2ccccc12 (stereo not drawn) [Compound 8],MIC,[2],>32 µg/mL
same,MIC,[3]; K. pneumoniae S47889,>32 µg/mL
same,MIC,"[3]; Klebsiella pneumoniae, BAA1705, K. pneumoniae BAA-1705",> 32 µg/mL
same,MIC,[4]; A. baumannii W41979,>32 µg/mL
same,MIC,"[4]; Acinetobacter baumannii, A. baumannii F19521",> 32 µg/mL
same,MIC,[5],>32 µg/mL
Cc1c(CN(C)C(=O)/C=C/c2cnc3c(c2)CCC(=O)N3)oc2ccccc12 [Debio-1452],MIC,[6]; S. aureus ATCC 29213,0.008 µg/mL
same,fold increase in MIC in the presence of serum,"[6]; S. aureus, human serum",8 fold
same,MIC,[7],> 32 µg/mL
same,MIC,[2],>32 µg/mL
same,MIC,[3]; K. pneumoniae BAA-1705,>32 µg/mL
same,MIC,[3]; K. pneumoniae S47889,>32 µg/mL
same,MIC,[4]; A. baumannii F19521,>32 µg/mL
same,MIC,[4]; A. baumannii W41979,>32 µg/mL
same,MIC,[5],>32 µg/mL
same,accumulation,[8],no statistically significant accumulation over negative controls
same,efficacy in animal models of S. aureus infections,[9],marked efficacy
same,efficacy in patients,[10],marked efficacy
Oc1cc(Cl)ccc1Oc1ccc(Cl)cc1Cl [Triclosan],cross-resistance,[11]; A116V mutants resistant to Debio-1452-NH3,no cross-resistance
same,cross-resistance,[11]; G148S mutants resistant to Debio-1452-NH3,minimal cross-resistance

# From paper PMC6953607 (Nature microbiology, 2019)
